We go through four molecules from patent US20080299589A1, “Methods and Materials for Examining the P13k/Akt Pathway in Gliomas and Prostate Cancers” (The Regents of the University of California, priority 2003, published 2008).

Entries after “also recorded” stand apart in the source; their conditions may differ.

In assay [1] the test system is PTEN deficient prostate cancer cell lines. Conditions: PTEN deficient vs wild type prostate cancer cell lines; cited from earlier work.
A further assay has as its system LNCaP cells. The assay is described as follows: Immunostaining of formalin fixed, paraffin embedded LNCaP cell pellets with phospho-specific antibodies after inhibitor treatment. The class given is cell-based. Conditions: 18 hours, vs vehicle. As to the method: (§1) Cells (LNCaP, DU 145, HT 129) were grown in culture (DMEM supplemented with 10% FBS, L-Glutamine, Penicillin and Streptomycin) and exposed to vehicle, the PI3K inhibitor LY294002 (30 μM), the mTOR inhibitor, CCI-779 (20 nM) for 18 hours or the MEK inhibitor, UO126 (20 μM) combined with 100 ng/ml of EGF for 20 minutes. Cell pellets were prepared, formalin fixed and embedded in paraffin, then cut for immunohistochemical staining with phospho-AKT, -S6, -FKHR and -ERK antibodies. We performed antigen retrieval with a 10 mM sodium citrate buffer (pH 6.0) for 30 minutes in a pressure cooker. Peroxidase activity was quenched with 3% hydrogen peroxide in water. Sections were stained overnight at 4° C. with monoclonal antibodies to PTEN at 1:300 (clone 6H2.1; Cascade Bioscience, Winchester, Mass. This antibody recognizes a 99 amino acid epitope at the C-terminus of PTEN) and polyclonal phosphorylation-specific antibodies to p-AKT (Set 473), p-FKHR which recognizes phosphorylated forms of the forkhead family of transcription factors FKHR (FOXO 1), FKHRL1 (FOXO 3a) and AFX (FOXO 4), p-S6 Ribosomal protein (Set 235/236), p-ERK (Thr-202/Tyr-204) at 1:100 (Cell Signaling Technology, Beverly, Mass.). This was followed by application of biotinylated secondary antibodies (Vector) at 1:1000 dilution for 30 minutes and Avidin-biotin complex (Elite ABC; Vector). Negative control slides received normal mouse serum (DAKO) as the primary antibody. Diaminobenzidine tetrahydrochloride (DAB) was used as the enzyme substrate to visualize specific antibody localization for PTEN and p-AKT; Vector NovaRed (Vector) for p-FKHR, p-S6 and p-ERK. Slides were counterstained with Harris hematoxylin. For immunofluorescence assays, post fixation in paraformaldehyde, the cells were probed with Total AKT (1:50) and p-AKT (1:250); the secondary antibodies Alexa Flour anti-rabbit and anti-mouse (1:1000) [Molecular Probes, Eugene, Oreg.]. Following incubation, images were captured on a Nikon fluorescence microscope and then overlaid using Adobe Photoshop software. […]

For assay [2], the system named is PTEN deficient prostate cancer xenografts. The conditions noted are these: PTEN deficient vs wild type prostate cancer xenografts; cited from earlier work.
A further assay relates to HT129 cells. Put plainly: p-ERK staining in EGF-induced HT129 cells. The assay is classed as cell-based. As to the method: as §1, with “This was followed by application of biotinylated secondary antibodies (Vector) at 1:1000 dilution for 30 minutes and Avidin-biotin complex (Elite ABC; Vector). Negative control slides received normal mouse serum (DAKO) as the primary antibody. Diaminobenzidine tetrahydrochloride (DAB) was used as the enzyme substrate to visualize specific antibody localization for PTEN and p-AKT; Vector NovaRed (Vector) for p-FKHR, p-S6 and p-ERK. Slides were counterstained with Harris hematoxylin. For immunofluorescence assays, post fixation in paraformaldehyde, the cells were probed with Total AKT (1:50) and p-AKT (1:250); the secondary antibodies Alexa Flour anti-rabbit and anti-mouse (1:1000) [Molecular Probes, Eugene, Oreg.].” left out

The subject of a further assay is SKMG-3 cells. The conditions noted are these: unstimulated SKMG-3 cells, minimal growth conditions; cited from earlier work.

For the molecule `CO[C@H]1C[C@@H]2CC[C@@H](C)[C@@](O)(O2)C(=O)C(=O)N2CCCC[C@H]2C(=O)O[C@H]([C@H](C)C[C@@H]2CC[C@@H](OC(=O)C(C)(CO)CO)[C@H](OC)C2)CC(=O)[C@H](C)/C=C(\C)[C@@H](O)[C@@H](OC)C(=O)[C@H](C)C[C@H](C)/C=C/C=C/C=C/1C` [CCI-779], the “sensitivity to pharmacologic inhibition of mTOR compared to wild type counterparts” value in assay [1] and in assay [2] was “more sensitive” in each case. Besides, the “staining intensity of p-AKT” value in the assay on LNCaP cells (CCI-779 20 nM) is “no effect”. For the same molecule, the “staining intensity of p-S6 (S6 phosphorylation)” value in the assay with LNCaP cells (CCI-779 20 nM) is “downregulation of S6 phosphorylation; also recorded: decreased staining intensity”.

Turning to `O=c1cc(N2CCOCC2)oc2c(-c3ccccc3)cccc12` [LY294002], in the assay on LNCaP cells (LY294002 30 μM), the “staining intensity of p-ERK” value is given as “no effect”. The p-ERK staining result in the assay with HT129 cells (HT129 cells induced with EGF 100 ng/ml, LY294002) is reported as “lack of inhibition”.

Consider `CNc1cc2c(Nc3cccc(Br)c3)ncnc2cn1` [PD158780], for which, in the assay with SKMG-3 cells, the “constitutive phosphorylation of Erk” value is recorded as “reduces the constitutive phosphorylation” and the “constitutive phosphorylation of the receptor (EGFR)” value is on record as “reduces the constitutive phosphorylation”.

`N#CC(=C(/N)Sc1ccccc1N)/C(C#N)=C(/N)Sc1ccccc1N` [UO-126]: in the assay with HT129 cells (HT129 cells induced with EGF 100 ng/ml for 20 minutes, UO-126 20 μM for 20 minutes), the p-ERK staining result was “decreased staining; also recorded: reduced”.
